Laboratory results from US11021475B2, “Amide-substituted heterocyclic compounds useful as modulators of IL-12, IL-23 and/or IFN alpha responses” (Bristol-Myers Squibb Company, priority 2012, dated 2021).
Read-outs that look alike come from different tables or passages of the source.

How the values were obtained:
[1] = target: His-tagged protein corresponding to amino acids 575-869 of human Tyk2 (Homo sapiens (Human), UniProt P29597); assay: Probe displacement assay (scintillation proximity, radiolabeled probe); assay type: binding; settings: 2.5 nM Tyk2 (575-869), 40 nM [3H] probe, 30 minutes at room temperature
Protocol: The probe displacement assay is conducted as follows: In a […], test compounds along with recombinantly expressed His-tagged protein corresponding to amino acids 575-869 of human Tyk2 (sequence shown below) at 2.5 nM, 40 nM ((R)—N-(1-(3-(8-methyl-5-(methylamino)-8H-imidazo[4,5-d]thiazolo[5,4-b]pyridin-2-yl)phenyl)ethyl)-2-([^3H]methylsulfonyl)benzamide) (preparation described below) and 80 μg/mL Copper His-Tag scintillation proximity assay beads (Perkin Elmer, Catalog #RPNQ0095) in 50 mM HEPES, pH 7.5, containing 100 μg/mL bovine serum albumin and 5% DMSO were incubated for 30 minutes at room temperature.
Protein Sequence of recombinant Hig-tagged Tyk2 (575-869):
The preparation of radiolabeled probe, (R)—N-(1-(3-(8-methyl-5-(methylamino)-8H-imidazo[4,5-d]thiazolo[5,4-b]pyridin-2-yl)phenyl)ethyl)-2-([^3H]methylsulfonyl)benzamide, was performed as described below.

[2] = tested on: IL-23 stimulated Kit225 T cells (STAT-dependent luciferase reporter); assay: Kit225 T cell assay, IL-23-stimulated STAT-dependent luciferase reporter; assay type: cell-based, human; settings: 20 ng/mL human recombinant IL-23, 5-6 hours, read-out: IL-23 Kit225 Reporter (IC50)
Procedure, shortened: (§1)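 Kit225 T cells carrying a stable STAT-dependent luciferase reporter, stimulated 5-6 h with 20 ng/mL human IL-23 or 200 U/mL human IFNα. Luminescence read out; % inhibition derived against unstimulated (100%) and no-inhibitor (0%) controls.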

[3] = tested on: IFNα stimulated Kit225 T cells (STAT-dependent luciferase reporter); assay: Kit225 T cell assay, IFNα-stimulated STAT-dependent luciferase reporter; assay type: cell-based, human; settings: 200 U/mL human recombinant IFNα, 5-6 hours, read-out: IFNα Kit225 Reporter (IC50)
Procedure, shortened: as §1

Chain of His-tagged protein corresponding to amino acids 575-869 of human Tyk2 (P29597 other isoform, or with tags, fused parts or gaps): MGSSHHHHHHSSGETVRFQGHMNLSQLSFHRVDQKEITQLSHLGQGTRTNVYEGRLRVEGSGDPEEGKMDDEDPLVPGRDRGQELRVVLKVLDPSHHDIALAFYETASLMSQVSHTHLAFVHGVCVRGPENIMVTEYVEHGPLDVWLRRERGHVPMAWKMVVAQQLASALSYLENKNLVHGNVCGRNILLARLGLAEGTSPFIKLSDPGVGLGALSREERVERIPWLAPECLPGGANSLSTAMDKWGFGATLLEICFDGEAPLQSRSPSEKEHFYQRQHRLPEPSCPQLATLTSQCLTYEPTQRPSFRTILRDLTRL

Row | Compound | EC50 [1] | IC50 [2] | IC50 [3] | IC50 ([2]; KIT225) | IC50 ([3]; KIT225)
1 | CCNC(=O)c1nnc(Nc2ccc(F)cn2)cc1Nc1ccccc1S(C)(=O)=O [Example 4] | 130 nM | 2300 nM | 1150 nM | – | –
2 | CS(=O)(=O)c1ccccc1Nc1cc(Nc2ccc(F)cn2)nnc1C(=O)NC1CC1 [Example 5] | 410 nM | 12500 nM | 6360 nM | – | –
3 | CNC(=O)c1nnc(Nc2ccccn2)cc1Nc1ccccc1S(C)(=O)=O [Example 16] | 6.57 nM | 40 nM | 20 nM | – | –
4 | CNC(=O)c1nnc(Nc2cc(COC)ccn2)cc1Nc1ccccc1S(C)(=O)=O [Example 51] | 7.19 nM | 40 nM | 20 nM | – | –
5 | CNC(=O)c1nnc(NC(=O)C2CC2)cc1Nc1cccc(-c2ccc(C)nn2)c1OC [Example 69] | 70 nM | 380 nM | 160 nM | – | –
6 | CNC(=O)c1nnc(Nc2ccccn2)cc1Nc1cccc(-c2nc(C)cs2)c1OC [Example 73] | 5.21 nM | 80 nM | 50 nM | – | –
7 | CNC(=O)c1nnc(Nc2ccccn2)cc1Nc1cccc(-c2ncn(C)n2)c1OC [Example 76] | 6.17 nM | 1.99 nM | 3.49 nM | – | –
8 | CNC(=O)c1nnc(Nc2cc(C(C)O)ccn2)cc1Nc1cccc(-c2ncn(C)n2)c1OC (stereo not shown) [Example 84] | 1.28 nM | 20 nM | 9.39 nM | – | –
9 | CNC(=O)c1nnc(Nc2cc(C)n(C)n2)cc1Nc1cccc(-c2cnn(C)c2)c1OC [Example 85] | 7.36 nM | 170 nM | 50 nM | – | –
10 | CNC(=O)c1nnc(Nc2ccncn2)cc1Nc1cccc(-c2ncn(C)n2)c1OC [Example 94] | 1.72 nM | 30 nM | 8.59 nM | – | –
11 | CNC(=O)c1nnc(Nc2ccc(CO)cn2)cc1Nc1cccc(-c2ncn(C)n2)c1OC [Example 102] | 1.59 nM | 40 nM | 30 nM | – | –
12 | CNC(=O)c1nnc(Nc2cc(C)nc(C)n2)cc1Nc1cccc(-c2ncn(C)n2)c1OC [Example 108] | 1.46 nM | 8.49 nM | 3.54 nM | – | –
13 | CNC(=O)c1nnc(Nc2cnccn2)cc1Nc1cccc(-c2ncccn2)c1OC [Example 112] | 1.94 nM | 7.49 nM | 3.72 nM | – | –
14 | CNC(=O)c1nnc(Nc2cc(C)nc(COC)n2)cc1Nc1cccc(-c2ncn(C)n2)c1OC [Example 114] | 1.89 nM | 8.29 nM | 3.77 nM | – | –
15 | CNC(=O)c1nnc(NC(=O)C2CC2)cc1Nc1ccccc1OC [Example 125] | 110 nM | 170 nM | 430 nM | – | –
16 | CNC(=O)c1nnc(Nc2cc(NC(=O)C3CC3)nc(C)n2)cc1Nc1cccc(-c2ncn(C)n2)c1OC [Example 134] | 5.64 nM | 30 nM | 10 nM | – | –
17 | CNC(=O)c1nnc(Nc2cc(C)c(F)cn2)cc1Nc1cccc(-c2n[nH]c(C)n2)c1OC [Example 142] | 6.95 nM | 6.59 nM | 4.3 nM | – | –
18 | CNC(=O)c1nnc(NC(=O)C2CC2)cc1Nc1cccc(-c2nnn(C)n2)c1OC [Example 146] | 1.7 nM | 10 nM | 5.33 nM | – | –
19 | CNC(=O)c1nnc(Nc2ccccn2)cc1Nc1cccc(-c2nnn(C)n2)c1OC [Example 147] | 0.877 nM | 1.01 nM | 4.42 nM | – | –
20 | CNC(=O)c1nnc(Nc2ccccn2)cc1Nc1cccc(-c2nnc(C)o2)c1OC [Example 151] | 7.22 nM | 20 nM | 20 nM | – | –
21 | CNC(=O)c1nnc(NC(=O)C2CC2)cc1Nc1cccc(-c2nnc(C)s2)c1OC [Example 154] | 90 nM | 590 nM | 430 nM | – | –

Row | Compound | EC50 [1] | IC50 [2] | IC50 [3] | IC50 ([2]; KIT225) | IC50 ([3]; KIT225)
22 | CNC(=O)c1nnc(Nc2ccccn2)cc1Nc1cccc(-c2nnc(C)s2)c1OC [Example 155] | 7.13 nM | 30 nM | 30 nM | – | –
23 | CNC(=O)c1nnc(NC(=O)C2CC2)cc1Nc1cccc(-c2cnc(C)s2)c1OC [Example 160] | 70 nM | 410 nM | 310 nM | – | –
24 | CNC(=O)c1nnc(NC(=O)C2CC2)cc1Nc1cccc(-c2ncn(CC(F)F)n2)c1OC [Example 176] | 6.35 nM | 40 nM | 20 nM | – | –
25 | CNC(=O)c1nnc(Nc2cc(C)nc(C)n2)cc1Nc1cccc(-c2nc(C)n(C)n2)c1OC [Example 183] | 5.72 nM | 30 nM | 3.67 nM | – | –
26 | CNC(=O)c1nnc(NC(=O)C2CC2)cc1Nc1cccc(-c2cnn(CCF)c2)c1OC [Example 186] | 60 nM | 170 nM | 80 nM | – | –
27 | CNC(=O)c1nnc(Nc2cc(C)nc(C)n2)cc1Nc1cccc(-c2c[nH]nn2)c1OC [Example 191] | – | 10 nM | 8.63 nM | – | –
28 | [2H]C([2H])([2H])NC(=O)c1nnc(NC(=O)C2CC2)cc1Nc1cccc(-c2c[nH]nn2)c1OC [Example 192] | – | – | – | 40 nM | 30 nM
29 | CNC(=O)c1nnc(Nc2cc(C)n(C)n2)cc1Nc1cccc(-c2c[nH]nn2)c1OC [Example 193] | – | 30 nM | 40 nM | – | –
30 | CNC(=O)c1nnc(NC(=O)C2CC2)cc1Nc1cccc(-c2cc(C)no2)c1OC [Example 194] | 80 nM | 630 nM | 410 nM | – | –
31 | [2H]C([2H])([2H])NC(=O)c1nnc(NC(=O)C2CC2)cc1Nc1cccc(-c2cc[nH]n2)c1OC [Example 195] | – | – | – | 10 nM | 20 nM
32 | [2H]C([2H])([2H])NC(=O)c1nnc(NC(=O)C2CC2)cc1Nc1cccc(-c2ccn(CC(C)(C)O)n2)c1OC [Example 196] | – | – | – | 70 nM | 160 nM
33 | CNC(=O)c1nnc(Nc2cc(C)c(F)cn2)cc1Nc1cccc(-c2ccnn2C)c1OC [Example 197] | – | 290 nM | 260 nM | – | –
34 | CNC(=O)c1nnc(Nc2ccccn2)cc1Nc1cccc(-c2ccnn2C)c1OC [Example 199] | – | 190 nM | 230 nM | – | –
35 | [2H]C([2H])([2H])NC(=O)c1nnc(NC(=O)C2CC2)cc1Nc1cccc(-c2cc(C)[nH]n2)c1OC [Example 200] | – | – | – | 80 nM | 30 nM
36 | COc1c(Nc2cc(NC(=O)C3CC3)nnc2C(N)=O)cccc1-c1ncn(C)n1 [Example 201] | – | 20 nM | 4.13 nM | – | –
37 | [2H]C([2H])([2H])NC(=O)c1nnc(NC(=O)C2CC2)cc1Nc1cccc(C#N)c1OC [Example 202, 4-((3-cyano-2-methoxyphenyl)amino)-6-(cyclopropanecarboxamido)-N-trideuteromethylpyridazine-3-carboxamide] | – | – | – | 290 nM | 330 nM
38 | CNC(=O)c1nnc(Nc2ccccn2)cc1Nc1cccc(-c2nnc(C)o2)c1SC [Example 203] | – | 310 nM | 110 nM | – | –
39 | CNC(=O)c1nnc(Nc2ccccn2)cc1Nc1cccc(-c2nnc[nH]2)c1SC [Example 204, N-methyl-4-((2-(methylthio)-3-(4H-1,2,4-triazol-3-yl)phenyl)amino)-6-(pyridin-2-ylamino)pyridazine-3-carboxamide] | – | – | – | 70 nM | 20 nM
40 | CNC(=O)c1nnc(Nc2ccccn2)cc1Nc1cccc(-c2ncn(C)n2)c1SC [Example 205] | – | – | – | 140 nM | 50 nM
41 | CNC(=O)c1nnc(Nc2ccccn2)cc1Nc1cccc(-c2noc(C)n2)c1OC [Example 206] | – | – | – | 4.38 nM | 0.712 nM
